# Active and inactive are the calls of the source.
# Key:
# [1] = target: T1, Short transient receptor potential channel 4 (Mus musculus, UniProt Q9QUQ5); test: calcium entry via TRPC4 opening agents – cell-based, HEK293 TRPC4/mu-opioid, Fluo-4 calcium, dose response (AID 434937); format: functional
# T1 sequence (Q9QUQ5 whole entry): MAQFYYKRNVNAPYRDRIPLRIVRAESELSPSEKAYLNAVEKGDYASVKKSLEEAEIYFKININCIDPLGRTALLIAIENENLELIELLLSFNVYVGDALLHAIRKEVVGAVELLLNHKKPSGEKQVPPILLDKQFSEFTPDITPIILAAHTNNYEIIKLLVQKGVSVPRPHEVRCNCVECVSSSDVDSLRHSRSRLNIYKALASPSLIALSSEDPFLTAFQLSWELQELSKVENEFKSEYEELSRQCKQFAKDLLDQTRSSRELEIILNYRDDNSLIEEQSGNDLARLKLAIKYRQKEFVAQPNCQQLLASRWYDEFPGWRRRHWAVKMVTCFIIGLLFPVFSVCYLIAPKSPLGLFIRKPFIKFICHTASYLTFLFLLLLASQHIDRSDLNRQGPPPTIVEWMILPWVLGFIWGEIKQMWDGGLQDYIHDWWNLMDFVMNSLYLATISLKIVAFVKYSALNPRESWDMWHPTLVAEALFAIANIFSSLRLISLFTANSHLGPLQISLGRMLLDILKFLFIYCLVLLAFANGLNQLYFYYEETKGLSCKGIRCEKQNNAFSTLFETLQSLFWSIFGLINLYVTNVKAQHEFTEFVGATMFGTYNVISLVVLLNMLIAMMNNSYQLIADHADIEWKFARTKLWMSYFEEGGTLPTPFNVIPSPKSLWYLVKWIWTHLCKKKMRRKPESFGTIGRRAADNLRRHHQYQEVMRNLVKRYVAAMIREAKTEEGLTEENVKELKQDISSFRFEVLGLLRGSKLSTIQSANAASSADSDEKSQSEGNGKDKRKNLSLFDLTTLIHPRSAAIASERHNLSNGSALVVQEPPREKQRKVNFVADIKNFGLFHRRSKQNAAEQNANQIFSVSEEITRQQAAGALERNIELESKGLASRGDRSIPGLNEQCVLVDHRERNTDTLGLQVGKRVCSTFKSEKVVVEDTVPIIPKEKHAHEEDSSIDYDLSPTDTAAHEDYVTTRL
# [2] = target: Delta-type opioid receptor (Homo sapiens, UniProt P41143); test: Counterscreen for agonists of heterodimerization of the mu 1 (OPRM1) and delta 1 (OPRD1) opioid receptors: Luminescence-based cell-based high throughput dose response assay to identify agonists of OPRD1 homodimerization. [Related pubchem assays (depositor defined):AID504326, AID504355, AID504692, AID504904, AID504905]; format: functional
# Mu-type opioid receptor = Mu-type opioid receptor (Homo sapiens, UniProt P35372); test: Counterscreen for agonists of heterodimerization of the mu 1 (OPRM1) and delta 1 (OPRD1) opioid receptors: Luminescence-based cell-based high throughput dose response assay to identify agonists of OPRM1 homodimerization.; format: functional;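 note: U2OS cells expressing OPRM1 and beta-arrestin as split beta-galactosidase partners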
# [3] = target: 5-hydroxytryptamine receptor 5A (Homo sapiens, UniProt P47898); test: Counterscreen for agonists of OPRM1-OPRD1 heterodimerization: luminescence-based cell-based high throughput dose response assay to identify agonists of 5-hydroxytryptamine (serotonin) 5A receptor (HTR5A). [Related pubchem assays (depositor defined):AID504326, AID504355, AID504692, AID504904, AID504905]; format: functional
# Trypsin = Trypsin (Sus scrofa, UniProt P00761); test: trypsin protease activity blockade – biochemical, quenched peptide fluorescence, cherry-pick, selectivity assay for Rce1 protease inhibitor project, dose response (AID 488789)
# CAAX prenyl protease 2 [4] = target: T2, CAAX prenyl protease 2 (Saccharomyces cerevisiae S288c, UniProt Q03530); format: biochemical
# T2 sequence (Q03530 whole entry): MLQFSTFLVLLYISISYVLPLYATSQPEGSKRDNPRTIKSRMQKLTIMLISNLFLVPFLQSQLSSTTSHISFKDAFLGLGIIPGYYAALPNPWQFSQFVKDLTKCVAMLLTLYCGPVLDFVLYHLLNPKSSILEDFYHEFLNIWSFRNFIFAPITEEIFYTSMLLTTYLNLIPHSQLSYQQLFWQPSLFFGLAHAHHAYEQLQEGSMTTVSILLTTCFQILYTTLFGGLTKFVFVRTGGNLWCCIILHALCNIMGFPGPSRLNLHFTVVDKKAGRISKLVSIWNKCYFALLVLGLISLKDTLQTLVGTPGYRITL
# CAAX prenyl protease 1 = CAAX prenyl protease 1 (Saccharomyces cerevisiae S288c, UniProt P47154); test: yeast CAAX protease Ste24 inhibition – biochemical, S. cerevisiae, plate reader, cherry-pick, dose response (AID 488815)
# [5] = target: T3, Endoribonuclease toxin MazF (Escherichia coli K-12, UniProt P0AE70); test: activation of MazEF endoribonuclease cleavage – biochemical, fluorescence, single-stranded RNA substrate, uHTS hits, dose response (AID 588481); format: functional
# T3 sequence (P0AE70 whole entry): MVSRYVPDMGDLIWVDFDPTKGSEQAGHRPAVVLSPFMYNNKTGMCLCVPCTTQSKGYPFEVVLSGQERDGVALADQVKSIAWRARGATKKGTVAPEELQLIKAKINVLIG
# [6] = target: T3, Endoribonuclease toxin MazF; test: substrate-only fluorescence increase artefacts – biochemical, single-stranded RNase substrate, counter-screen for MazEF activator project, dose response (AID 588502); format: functional
# Melanocortin receptor 4 = Melanocortin receptor 4 (Homo sapiens, UniProt P32245); format: functional, cell-based;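 note: Cell-based assay with luminescence read-out, confirmatory dose-response testing for agonist activity of biased ligands at MC4R; human U2OS cells with tagged receptor and beta-arrestin; potency of agonists that increase receptor coupling to beta-arrestin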
# CAAX prenyl protease 2 [7] = target: CAAX prenyl protease 2 (Homo sapiens, UniProt Q9Y256); test: inhibition of Ras-converting CAAX protease Rce1 – biochemical, yeast membranes, quenched-peptide fluorescence, cherry-pick, dose response (AID 588849)
# Nonstructural protein 1 = Nonstructural protein 1 (Influenza A virus, UniProt Q194T2); format: functional, Influenza A virus (A/California/07/2009(H1N1))
# Vero = test: Vero E6 cell cytotoxicity, dose response, cytotoxicity control (AID 540298); format: functional; conditions: Chlorocebus sabaeus
# MDCK [8] = test: MDCK cell cytotoxicity, dose response, cytotoxicity control (AID 540296); format: functional; conditions: Canis lupus familiaris
# MDCK [9] = test: antiviral activity against H1N1 influenza, dose response, cell-based, strain KY136 (AID 540257); format: functional; conditions: Canis lupus familiaris
# [10] = Trypanosoma cruzi growth suppression in host cells – NIH3T3 host cells, beta-gal luminescence, confirmation (AID 2044); format: functional, cell-based;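 note: intracellular parasites grown in NIH/3T3 mouse fibroblasts as host cells; luminescent beta-galactosidase reporter signal from transgenic T. cruzi replicating inside host cells; inhibitors lower the luminescence signal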
# [11] = NIH3T3 cell viability loss – ATP luminescence, mouse fibroblasts, counter-screen, dose response (AID 2010); format: functional, cell-based;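 note: cells exposed to compound for about 90 hours before reading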
# HEK293 [12] = test: cells; conditions: Homo sapiens
# HEK293 [13] = test: cells; conditions: Homo sapiens; remark: listed apart in the source
# A-375 [14] = test: MITF: Counter assay: A375 proliferation Measured in Cell-Based System Using Plate Reader - 2084-03_Inhibitor_Dose_DryPowder_Activity. [Related pubchem assays (depositor defined):AID488944]; format: functional; conditions: Homo sapiens
# A-375 [15] = test: proliferation inhibition in MITF-low A375 cells – cell-based, cherry-pick samples, set 2, counter-screen for MITF modulator project, dose response (AID 540335); format: functional; conditions: Homo sapiens
# [16] = Luminescence-based dose response cell-based high throughput screening assay for cytotoxic compounds using the IEC-6 intestinal epithelial cell line. [Related pubchem assays: 1858 (Summary AID.), 1825 (Counterscreen.), 1907 (Confirmation screen.)]; format: functional
# [17] = THP-1 cell cytotoxicity, dose response, cytotoxicity control for non-replicating M. tuberculosis project (AID 489025); format: functional
# [18] = HepG2 cell cytotoxicity, dose response, cytotoxicity control for non-replicating M. tuberculosis project (AID 489018); format: functional; conditions: Mycobacterium tuberculosis
# [19] = Vero E6 cell cytotoxicity, dose response, cytotoxicity control for non-replicating M. tuberculosis project, secondary assay (AID 492998); format: functional, VeroE6; conditions: Vero C1008
# cells = format: functional
# Paired box protein Pax-8 = Paired box protein Pax-8 (Homo sapiens, UniProt Q06710); test: PAX8 transcriptional activity inhibition in RMG-I – RMG-I cells, luciferase, cherry-pick, dose response (AID 687027); format: functional, cell-based;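 note: luciferase reporter driven by Pax8 target thyroperoxidase promoter measured by SteadyGlo luminescence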
# Escherichia coli [20] = test: microbe, parasite or virus in culture
# Escherichia coli [21] = test: microbe, parasite or virus in culture; remark: listed apart in the source
# Mu-type opioid receptor, sequence (P35372 whole entry): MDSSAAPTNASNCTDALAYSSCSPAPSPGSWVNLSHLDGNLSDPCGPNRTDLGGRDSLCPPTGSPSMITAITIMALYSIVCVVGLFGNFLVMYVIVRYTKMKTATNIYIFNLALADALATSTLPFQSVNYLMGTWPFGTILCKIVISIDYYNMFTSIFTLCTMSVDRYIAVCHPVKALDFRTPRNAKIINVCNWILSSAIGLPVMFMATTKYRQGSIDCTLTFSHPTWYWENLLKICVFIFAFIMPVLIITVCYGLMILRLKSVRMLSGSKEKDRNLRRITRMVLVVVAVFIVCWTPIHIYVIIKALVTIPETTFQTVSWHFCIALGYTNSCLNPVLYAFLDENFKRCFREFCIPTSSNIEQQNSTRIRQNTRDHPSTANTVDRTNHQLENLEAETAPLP
# Delta-type opioid receptor, sequence (P41143 whole entry): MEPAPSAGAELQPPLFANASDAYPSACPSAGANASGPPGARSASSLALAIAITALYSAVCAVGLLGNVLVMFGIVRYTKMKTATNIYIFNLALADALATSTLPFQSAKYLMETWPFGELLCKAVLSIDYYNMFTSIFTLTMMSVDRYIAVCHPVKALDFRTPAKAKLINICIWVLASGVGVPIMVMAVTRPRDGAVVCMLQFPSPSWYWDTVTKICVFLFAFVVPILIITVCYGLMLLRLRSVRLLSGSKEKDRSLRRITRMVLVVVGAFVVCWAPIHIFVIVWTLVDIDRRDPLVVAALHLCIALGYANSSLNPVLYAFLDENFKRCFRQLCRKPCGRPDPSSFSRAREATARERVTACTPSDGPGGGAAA
# 5-hydroxytryptamine receptor 5A, sequence (P47898 whole entry): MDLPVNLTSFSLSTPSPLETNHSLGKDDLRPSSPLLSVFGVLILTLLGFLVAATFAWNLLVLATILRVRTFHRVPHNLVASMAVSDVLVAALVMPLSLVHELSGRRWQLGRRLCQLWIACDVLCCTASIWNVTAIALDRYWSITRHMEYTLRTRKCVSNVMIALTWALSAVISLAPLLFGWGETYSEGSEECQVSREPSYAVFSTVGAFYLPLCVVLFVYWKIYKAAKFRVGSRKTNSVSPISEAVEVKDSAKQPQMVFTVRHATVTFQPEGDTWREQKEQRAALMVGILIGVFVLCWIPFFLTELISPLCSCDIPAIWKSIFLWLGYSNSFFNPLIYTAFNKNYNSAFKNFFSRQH
# Nonstructural protein 1, sequence (Q194T2 whole entry): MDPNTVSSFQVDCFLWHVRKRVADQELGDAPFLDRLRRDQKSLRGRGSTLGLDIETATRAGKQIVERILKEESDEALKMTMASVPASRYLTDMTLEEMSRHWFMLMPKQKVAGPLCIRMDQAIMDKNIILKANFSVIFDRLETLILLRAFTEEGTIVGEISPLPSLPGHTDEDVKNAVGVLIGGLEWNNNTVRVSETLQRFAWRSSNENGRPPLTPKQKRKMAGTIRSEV
# Paired box protein Pax-8, sequence (Q06710 whole entry): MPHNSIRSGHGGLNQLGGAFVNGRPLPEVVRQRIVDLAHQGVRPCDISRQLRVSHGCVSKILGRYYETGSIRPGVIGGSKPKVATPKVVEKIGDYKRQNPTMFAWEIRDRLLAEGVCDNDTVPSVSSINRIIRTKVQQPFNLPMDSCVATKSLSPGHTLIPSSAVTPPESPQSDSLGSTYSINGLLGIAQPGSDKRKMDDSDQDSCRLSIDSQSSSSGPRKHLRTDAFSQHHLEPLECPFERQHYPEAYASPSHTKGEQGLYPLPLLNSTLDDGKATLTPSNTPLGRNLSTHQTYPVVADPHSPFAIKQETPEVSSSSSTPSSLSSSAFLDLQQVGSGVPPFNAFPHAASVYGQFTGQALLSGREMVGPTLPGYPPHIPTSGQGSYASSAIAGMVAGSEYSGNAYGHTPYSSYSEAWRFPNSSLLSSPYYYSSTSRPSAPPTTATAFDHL
# CAAX prenyl protease 2 (Homo sapiens, UniProt Q9Y256), sequence (Q9Y256 whole entry): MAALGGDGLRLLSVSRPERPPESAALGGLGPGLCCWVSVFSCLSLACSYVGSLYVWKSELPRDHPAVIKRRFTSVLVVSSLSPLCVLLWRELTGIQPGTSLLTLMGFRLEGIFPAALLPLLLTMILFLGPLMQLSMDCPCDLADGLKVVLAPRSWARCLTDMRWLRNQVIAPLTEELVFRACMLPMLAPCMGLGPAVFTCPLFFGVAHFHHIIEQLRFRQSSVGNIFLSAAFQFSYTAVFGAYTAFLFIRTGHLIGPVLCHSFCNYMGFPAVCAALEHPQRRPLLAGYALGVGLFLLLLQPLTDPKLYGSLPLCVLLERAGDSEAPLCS
# CAAX prenyl protease 1, sequence (P47154 whole entry): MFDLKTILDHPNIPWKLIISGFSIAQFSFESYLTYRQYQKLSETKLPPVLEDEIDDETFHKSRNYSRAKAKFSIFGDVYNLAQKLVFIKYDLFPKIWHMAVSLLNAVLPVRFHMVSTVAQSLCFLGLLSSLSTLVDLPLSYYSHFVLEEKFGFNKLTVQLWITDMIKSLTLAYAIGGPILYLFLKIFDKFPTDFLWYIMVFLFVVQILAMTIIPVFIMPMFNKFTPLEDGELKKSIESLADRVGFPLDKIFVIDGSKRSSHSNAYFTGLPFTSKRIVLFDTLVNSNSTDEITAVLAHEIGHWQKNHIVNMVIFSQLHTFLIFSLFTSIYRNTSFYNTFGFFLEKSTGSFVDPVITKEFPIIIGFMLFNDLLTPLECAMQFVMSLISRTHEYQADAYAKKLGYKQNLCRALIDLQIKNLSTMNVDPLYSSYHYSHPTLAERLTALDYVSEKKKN
# Melanocortin receptor 4, sequence (P32245 whole entry): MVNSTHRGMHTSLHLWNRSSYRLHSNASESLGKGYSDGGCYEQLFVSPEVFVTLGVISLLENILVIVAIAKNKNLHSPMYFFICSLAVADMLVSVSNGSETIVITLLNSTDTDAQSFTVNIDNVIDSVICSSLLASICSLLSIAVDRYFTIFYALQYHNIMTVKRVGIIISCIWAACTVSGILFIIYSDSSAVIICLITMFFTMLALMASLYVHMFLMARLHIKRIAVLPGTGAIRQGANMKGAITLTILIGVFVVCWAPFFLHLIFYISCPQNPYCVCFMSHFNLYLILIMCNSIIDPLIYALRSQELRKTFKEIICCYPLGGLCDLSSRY
# Trypsin, sequence (P00761 whole entry): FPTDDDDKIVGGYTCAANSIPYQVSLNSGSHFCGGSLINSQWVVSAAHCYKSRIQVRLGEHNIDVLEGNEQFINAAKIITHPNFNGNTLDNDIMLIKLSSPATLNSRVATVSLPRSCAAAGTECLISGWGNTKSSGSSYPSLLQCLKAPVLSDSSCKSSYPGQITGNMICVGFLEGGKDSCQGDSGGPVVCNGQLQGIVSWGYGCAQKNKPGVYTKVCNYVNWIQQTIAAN
smiles,measurement,setting,value
Cc1ccc(Cl)cc1NC(=O)CNCC(c1ccccc1)N(C)C (configuration not stated),EC50,[1],0.376 µM (active)
same,EC50,[2],> 92.5 µM (inactive)
same,EC50,Mu-type opioid receptor,> 92.5 µM (inactive)
same,EC50,[3],> 92.5 µM (inactive)
Cc1nc(NC(=O)c2cccc(-c3cc4ccccc4oc3=O)c2)ccc1Br,AC50,Trypsin,16.6 µM (active)
same,AC50,CAAX prenyl protease 2 [4],> 100 µM (inactive)
same,AC50,CAAX prenyl protease 1,11.9 µM (active)
same,EC50,[5],> 99 µM (inactive)
same,EC50,[6],> 99 µM (inactive)
same,EC50,Melanocortin receptor 4,> 89.2 µM (inactive)
CCc1cc(=O)oc2cc(OCC(=O)N3CCC(C(=O)O)CC3)ccc12,AC50,CAAX prenyl protease 2 [4],31.9 µM (active)
same,AC50,CAAX prenyl protease 2 [7],14.3 µM (active)
CCc1ccccc1NC(=O)CSc1nc2nnc(C)c-2c(N)n1-c1cccc(OC)c1,IC50,Nonstructural protein 1,> 100 µM (active)
same,CC50,Vero,24.4 µM (active)
same,CC50,MDCK [8],35.7 µM (active)
same,IC50,MDCK [9],7.75 µM (active)
Cc1cc(C)nc(SC2c3cccc4cccc(c34)C2NS(=O)(=O)c2ccccc2)n1 (configuration not stated),EC50,[10],1.87 µM (active)
same,EC50,[11],12.8 µM (active)
same,EC50,HEK293 [12],> 59.6 µM (inactive)
same,EC50,HEK293 [13],> 59.6 µM (inactive)
Cc1csc(NC(=O)Cc2c(F)cccc2Cl)n1,AC50,A-375 [14],> 35 µM (active)
same,AC50,A-375 [15],> 35 µM (active)
CN1CCc2c(sc(NC(=O)c3ccc([N+](=O)[O-])o3)c2C(N)=O)C1,EC50,[10],1.26 µM (active)
same,IC50,[16],0.879 µM (active)
same,EC50,[11],3.92 µM (active)
same,CC50,[17],1.21 µM (active)
same,CC50,[18],2.55 µM (active)
same,CC50,[19],0.54 µM (active)
same,IC50,cells,17.6 µM (active)
same,AC50,Paired box protein Pax-8,1.67 µM (active)
same,AC50,Escherichia coli [20],23.2 µM (active)
same,AC50,Escherichia coli [21],26.4 µM (active)
